Like-named read-outs stand apart in the source and are kept apart here.
Experiments:
[1] = In vitro human cadaver skin flux of oxybutynin free base from adhesive matrix patches (modified Franz cells)
Protocol: In vitro human cadaver skin flux studies were conducted using modified Franz non-jacketed permeation cells. The temperature of the cells was maintained at 32° C. by placing the cells in a circulating water bath positioned over a stirring module. The epidermal membrane was separated from the human cadaver whole skin by the heat-separation method of Kligman & Christopher, 88 Arch. Dermatol. 702 (1963), hereby incorporated by reference, involving treating the full thickness skin at 60° C. for 60 seconds, after which time the stratum corneum and the epidermis (epidermal membrane) were gently peeled from the dermis.
For skin flux studies of matrix devices, the epidermal membrane was cut into rectangular strips, and the matrix device was cut into 0.96 cm^2 circular discs. The release liner was peeled from the disc, and the disc was laminated onto the stratum corneum surface of the epidermal membrane to form a skin-matrix laminate. The skin-matrix laminate was then loaded between the donor and receiver compartments of a diffusion cell with the epidermal side facing the receiver compartment. The laminate was clamped in place, and the receiver compartment was then filled with an appropriate receiving solution for a selected drug. The receiving solution was selected such that the drug was stable in the solution, the subsequent assay of the drug was not interfered with, and solubility of the drug was adequate to ensure sink conditions throughout the experiment. The diffusion cell was then placed in a circulating water bath calibrated to maintain the skin surface temperature at 32°±1° C. At predetermined sampling intervals, the entire contents of the receiver compartment were collected for drug quantitation, and the receiver compartment was filled with fresh receiving solution, taking care to eliminate any air bubbles at the skin/solution interface.
The cumulative amount of drug permeating through the epidermal membrane, Qt (μg/cm^2), at any time t was determined from the following formula: [formula] where Cn is the concentration (μg/ml) of the drug in the receiver sample for the corresponding sample time, V is the volume of fluid in the receiver chamber (~6.3 cm^3), and A is the diffusional area of the cell (0.64 cm^2). The slope of the best fit line to the plot of Qt vs. t gives the steady state flux (Jss, μg/cm^2 /hr); the intercept of this line on the time axis give the lag time (tL,h).
Matrix patches containing varying amounts of oxybutynin free base and penetration enhancers were prepared and tested as described above. The matrix systems consisted of 5 to 20% by weight of oxybutynin free base and 0 to 20% by weight of the enhancer contained in a medical grade acrylic copolymer adhesive.
The matrix formulations were prepared as follows. First, the solids content of the adhesive was determined by weighing a small amount of the adhesive solution in a preweighed aluminum dish. The solvent was evaporated by overnight drying in a convection oven maintained at 80° C. and the weight of the residue (dry adhesive) and percent solid adhesive content of the solution were determined. Once the solids content was determined, a known weight of the acrylic copolymer adhesive solution was weighed into a glass bottle. From the weight of the adhesive solution and the percent solid adhesive content, the amount of adhesive in the solution was calculated. Oxybutynin free base and enhancer were added to the bottle in proportions to yield the selected final composition. The bottle was then tightly capped, sealed with laboratory film, and rotated overnight until all ingredients had completely dissolved and the resultant solution was visually clear.
Approximately 8 ml of the solution was then dispensed on a silanized polyester release liner and cast with a 10 mil gap casting knife. The casting was then dried in a convection oven at 70° C. for 15 minutes to evaporate the solvent and to yield a dried film approximately 0.002 inch thick.

[2] = propylene glycol/linoleic acid enhancer system; cited from earlier work
[3] = In vitro human cadaver skin flux of oxybutynin free base from liquid reservoir gel formulations; format: in vitro ADME
Protocol: For skin flux studies of gel formulations (i.e., for liquid reservoir patch designs), the epidermal membrane was cut and placed between two halves of the permeation cell with the stratum corneum facing the donor compartment. The skin was allowed to hydrate at 32° C. overnight with 0.02% (w/v) sodium azide solution in the receiver compartment. The following morning, 75 μl of a gelled formulation was placed into a cavity created by placing a polytetrafluoroethylene washer over the stratum corneum surface. The cavity was then occluded by clamping an occlusive backing over the washer and gel. An appropriate receiving solution for a selected drug was placed in the receiver compartment in contact with the dermal side of the epidermis.
Liquid reservoir gel formulations containing oxybutynin free base and triacetin were tested as described above. Such liquid reservoir gel formulations were prepared in 10 ml quantities. Ethanol, water, glycerin, and triacetin were mixed in selected proportions in a capped vial. Then, 400 mg of oxybutynin free base was added to the vial, and the vial was capped and ultrasonicated to completely dissolve the drug. Next, 0.3 g of modified hydroxyethyl cellulose (NATROSOL PLUS 330CS, Aqualon, Wilmington, Del.) as a gelling agent was added to the mixture and the contents were mixed thoroughly and gently rotated overnight to completely dissolve the gelling agent.

[4] = Allen, U.S. Pat. No. 4,895,727; cited from earlier work
[5] = Enhancement of transdermal penetration, general statement; format: in vitro ADME
From the text: As used herein, the terms "enhancement", "penetration enhancement" or "permeation enhancement" mean an increase in the permeability of a biological membrane (i.e. skin or mucosa) to a drug, so as to increase the rate at which the drug permeates through the membrane. "Permeation enhancer," "enhancer," "penetration enhancer," or similar term means a material that achieves such permeation enhancement, and an "effective amount" of an enhancer means an amount effective to enhance penetration through the skin or mucosa of a selected agent to a selected degree. The enhanced permeation as effected though the use of such enhancers can be observed, for example, by measuring the rate of diffusion of the drug through animal or human skin using a diffusion cell apparatus. Such a diffusion cell is described by Merritt et al., Diffusion Apparatus for Skin Penetration, 1 J. of Controlled Release 61 (1984), incorporated herein by reference.

[6] = plaster with glycol and surfactant, WO9309783-A1; cited from earlier work
[7] = isosorbide dinitrate, JP05148141-A; cited from earlier work

CN1CCCC1=O [N-methyl pyrrolidone, reference compound]
exhibited the ability to increase transdermal skin flux of oxybutynin free base [1]: none of the well known penetration enhancers tested

CCCCCCCC/C=C\CCCCCCCC(=O)OCC(O)CO (centres unmarked) [glycerol monooleate, reference compound]
exhibited the ability to increase transdermal skin flux of oxybutynin free base ([1]; matrix system, TSR adhesive): none of the well known penetration enhancers tested

CCCCCCCCCCCCCC(=O)OC(C)C [isopropyl myristate, reference compound]
exhibited the ability to increase transdermal skin flux of oxybutynin free base ([1]; matrix system, TSR adhesive): none of the well known penetration enhancers tested

CCCCCCCCCCCCO [lauryl alcohol, reference compound]
exhibited the ability to increase transdermal skin flux of oxybutynin free base ([1]; matrix system, TSR adhesive): none of the well known penetration enhancers tested

CC(=O)OCC(COC(C)=O)OC(C)=O [triacetin, glyceryl triacetate]
flux of oxymorphone with increasing amounts of triacetin and decreasing linoleic acid [2]: decreasing flux
lag time for permeation of oxymorphone with increasing amounts of triacetin and decreasing linoleic acid [2]: increasing lag time
penetration enhancement with liquid reservoir patches [3]: no penetration enhancement of basic drugs (including oxybutynin) or other drugs has been observed
antifungal activity [4]: has activity as an antifungal agent
enhancing transdermal penetration of basic drugs ([5]; basic drugs, particularly pKa of about 8.0 or above, matrix patch): effective in enhancing transdermal penetration of basic drugs
enhancing transdermal penetration of neutral or acidic drugs ([5]; neutral or acidic drugs): not of neutral or acidic drugs
effect on skin flux of oxybutynin free base [1]: significantly increases the skin flux of oxybutynin free base
percutaneous absorption of piroxicam [6]: enhances percutaneous absorption of piroxicam
penetration enhancing effect of triacetin [7]: shown only in conjunction with a neutral, solvent-acting drug

sorbitan monooleate [reference compound]
exhibited the ability to increase transdermal skin flux of oxybutynin free base ([1]; matrix system, TSR adhesive): none of the well known penetration enhancers tested
